# Experimental data: patent US20090018211A1, “Method for inhibiting of COX2 and inflammation with phenolic aldehydes” (Board of Trustees of Michigan State University, priority 2007, published 2009)
# Tests used:
# [1] = biological target: T1, COX-2 enzyme (Homo sapiens, UniProt P35354); test: Cyclooxygenase inhibitory assay (oxygen consumption, arachidonic acid substrate), COX-2; assay type: biochemical; settings: for COX-2 enzyme inhibition: at 100 ppm (FIG. 1)
# T1 sequence (P35354 18-604): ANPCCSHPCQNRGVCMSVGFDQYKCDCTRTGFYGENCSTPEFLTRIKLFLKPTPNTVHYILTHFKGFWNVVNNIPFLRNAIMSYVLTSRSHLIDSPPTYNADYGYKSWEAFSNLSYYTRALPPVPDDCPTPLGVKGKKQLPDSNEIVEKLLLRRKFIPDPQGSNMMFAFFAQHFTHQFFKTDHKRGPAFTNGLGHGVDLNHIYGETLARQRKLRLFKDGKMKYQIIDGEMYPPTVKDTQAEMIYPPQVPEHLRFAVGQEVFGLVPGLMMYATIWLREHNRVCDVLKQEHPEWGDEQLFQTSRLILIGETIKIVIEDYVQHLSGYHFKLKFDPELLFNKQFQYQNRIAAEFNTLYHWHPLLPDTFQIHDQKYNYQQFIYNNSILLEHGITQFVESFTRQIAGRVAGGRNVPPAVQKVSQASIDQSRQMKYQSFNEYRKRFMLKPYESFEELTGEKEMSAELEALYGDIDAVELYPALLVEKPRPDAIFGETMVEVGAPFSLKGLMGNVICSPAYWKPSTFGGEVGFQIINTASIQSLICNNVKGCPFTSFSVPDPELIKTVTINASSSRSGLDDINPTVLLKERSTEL
# Protocol: (§1) Cyclooxygenase enzyme inhibitory assay of the extracts and compounds were carried out using COX-1 and COX-2 enzymes according to the previously published procedures (Jayaprakasam, B. et al., 2006. J. Agric. Food Chem., 54, 5375-5381).
# (§2) Cyclooxygenase Inhibitory Activity. The rate of oxygen consumption during the initial phase of the enzyme-mediated reaction, with arachidonic acid as substrate was measured using a Model 5300 biological oxygen monitor (Yellow Spring Instrument, Inc., Yellow Spring, Ohio). The test compounds, extracts and positive controls were dissolved in DMSO and an aliquot of 10 μL of each was added to the reaction chamber containing 0.6 mL of Tris buffer (0.1 M, pH 7) and, 1 mM of phenol, hemoglobin (17 μg). COX-1 or -2 enzymes (10 μL) was added to the chamber and incubated for 3 min. The reaction was initiated by the addition of arachidonic acid (10 μL of 1 mg/mL solution). Instantaneous inhibition was measured by using Quick Log Data acquisition and control computer software (Strawberry Tree Inc., Sunnyvale, Calif., USA). The percent inhibition was calculated with respect to DMSO control. Each sample was assayed twice and the standard deviation was calculated for n=2. Aspirin, Celebrex and Vioxx were used as positive controls.
# [2] = biological target: T2, COX-1 enzyme (Ovis aries, UniProt P05979); test: Cyclooxygenase inhibitory assay (oxygen consumption, arachidonic acid substrate), COX-1; assay type: biochemical; settings: for COX-1 enzyme inhibition: at 100 ppm (FIG. 1)
# T2 sequence (P05979 25-600): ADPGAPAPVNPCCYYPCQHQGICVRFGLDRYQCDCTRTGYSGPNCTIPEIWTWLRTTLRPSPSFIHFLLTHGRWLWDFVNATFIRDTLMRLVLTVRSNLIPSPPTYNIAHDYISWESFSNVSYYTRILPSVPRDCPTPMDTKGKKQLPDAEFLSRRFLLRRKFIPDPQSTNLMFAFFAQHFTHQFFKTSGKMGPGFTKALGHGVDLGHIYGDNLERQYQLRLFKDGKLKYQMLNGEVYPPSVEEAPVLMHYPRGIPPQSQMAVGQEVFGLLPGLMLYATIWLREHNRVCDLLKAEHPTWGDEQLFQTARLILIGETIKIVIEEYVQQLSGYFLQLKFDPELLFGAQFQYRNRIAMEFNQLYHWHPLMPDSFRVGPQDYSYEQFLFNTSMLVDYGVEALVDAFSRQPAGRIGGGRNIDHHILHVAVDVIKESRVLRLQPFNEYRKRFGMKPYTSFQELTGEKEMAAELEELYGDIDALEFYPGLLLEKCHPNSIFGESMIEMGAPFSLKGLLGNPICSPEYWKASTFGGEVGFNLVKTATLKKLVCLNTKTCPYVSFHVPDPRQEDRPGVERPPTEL
# Protocol: as §1, §2
SMILES,COX-2 enzyme inhibition [1],COX-1 enzyme inhibition [2],other results
"O=Cc1ccccc1 [A, Benzaldehyde]",not active,not active,
"O=Cc1cccc(O)c1 [C, 3-hydroxybenzaldehyde]",,,"selective inhibition of COX-1 enzyme ([2]; FIG. 1, 100 ppm, versus COX-2): selectively inhibited COX-1 enzyme"
"O=Cc1ccc(O)c(O)c1O [Compound J, 2,3,4-trihydroxybenzaldehyde]",,,"selective inhibition of COX-2 enzyme ([1]; FIG. 1, 100 ppm, versus COX-1): selectively inhibited COX-2 enzyme; IC50 ([1]; dose response (FIG. 2), read-out: IC50, inhibition of COX-2 (converted)): ~64.9 µM; activity on COX-1 enzyme ([2]; even at a 500 ppm concentration (FIG. 2)): not active"
"O=Cc1cc(O)c(O)cc1O [K, 2,4,5-trihydroxybenzaldehyde]",not active,not active,
